Assay results: US20190352339A1, “PEPTIDE INHIBITOR OF TRANSMEMBRANE PORE FORMATION AND EFFLUXPUMP FUNCTION IN A SMALL MULTIDRUG RESISTANCE PROTEIN FROM PSEUDOMONAS AERUGINOSA” (priority 2017, published 2019)
Square brackets hold non-standard residues; d marks the D form. Peptide text beside a SMILES is read from it. Sar = CNCC(=O)O

Tests used:
[1] = test system: human red blood cells (RBCs); assay type: cell-based; details: for minimal hemolytic concentration (MHC): red cells of human
Experimental: (§1) FIG. 4. (A) Proof-of-concept: Inhibition of Hsmr activity by an SMR TM4-mimic peptide. Hsmr-mediated efflux of the fluorescent toxicant ethidium bromide (EtBr) from E. coli cells upon treatment with a peptide derived from Hsmr TM4(85-105) [sequence shown]. Curves represent the change in EtBr fluorescence upon exiting the bacteria. Ac-A=acetyl-Ala. The black line indicates efflux by Hsmr in the absence of peptide; red line=efflux after addition of 1 μM TM4 peptide. The % efflux is compared in the black and red bars at the right. (B) Bioactivity profiles of designed SMR drug efflux inhibitor peptides. Four assays—EtBr efflux activity (Efflux), EtBr resensitization (ER), antimicrobial activity (AA), and hemolytic activity in human red blood cells (RBC) are depicted for linear peptides TM4(85-105) (left panel), and TM4(88-100) (centre); and stapled (S) peptide S-TM4(88-100)-N95 (right). Values for ER, AA and RBCs are given as the minimal inhibitory (MIC) or hemolytic concentration (MHC) (right axis).
As a necessary measure for any projected clinical applications of the designed inhibitors, hemolytic activity of peptides is assayed in human RBCs to confirm mammalian cell tolerance [Yin et al., 2012, J. Biol. Chem. 287, 7738-7745].

Hsmr = experiment: EtBr efflux assay, E. coli expressing Hsmr; assay type: cell-based, Halobacterium salinarum; details: E. coli cells expressing Hsmr, EtBr fluorescence decay
Experimental: as §1
FIG. 5. (A) Ethidium bromide efflux from E. coli bacteria expressing Hsmr. Peptides were added to ethidium bromide (EtBr) treated cells and incubated for 1 hr. The fluorescence of EtBr drops as the toxin is effluxed from the cells. ‘No peptide’ (maximum efflux control) is depicted in black. The core sequences of the peptides studied are based on the consensus sequence in Table 1. Residues in red emphasize retention of the common SMR TM4-TM4 interface in pathogenic bacteria. (B) EtBr efflux from E. coli containing plasmid-borne SMR from P. aeruginosa, (Psmr), as mediated by peptide LIN (full sequence=Ac-A(Sar)3-^88IIGIALINAGVVV^100-KKK-NH2). This experiment was performed as described in FIG. 4. […]
EtBr efflux represents a rapid and validated means by which to screen for SMR-mediated resistance activity [Poulsen and Deber, 2012, Antimicrob. […] Upon its removal, EtBr efflux is monitored by fluorescence decay.

[2] = molecular target: T1, SMR from P. aeruginosa (Psmr) (Pseudomonas aeruginosa, UniProt Q9HUH5); experiment: EtBr efflux assay, E. coli containing plasmid-borne Psmr; assay type: cell-based; details: 8 μM peptide; FIG. 5B
T1 construct: expressed in transfected cells; host or cells: E. coli
T1 sequence (Q9HUH5 whole entry, looked up): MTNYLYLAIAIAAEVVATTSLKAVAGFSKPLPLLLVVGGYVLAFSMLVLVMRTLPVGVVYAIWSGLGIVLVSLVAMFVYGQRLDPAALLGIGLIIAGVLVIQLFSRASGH
Experimental: FIG. 5. (A) Ethidium bromide efflux from E. coli bacteria expressing Hsmr. Peptides were added to ethidium bromide (EtBr) treated cells and incubated for 1 hr. The fluorescence of EtBr drops as the toxin is effluxed from the cells. ‘No peptide’ (maximum efflux control) is depicted in black. The core sequences of the peptides studied are based on the consensus sequence in Table 1. Residues in red emphasize retention of the common SMR TM4-TM4 interface in pathogenic bacteria. (B) EtBr efflux from E. coli containing plasmid-borne SMR from P. aeruginosa, (Psmr), as mediated by peptide LIN (full sequence=Ac-A(Sar)3-^88IIGIALINAGVVV^100-KKK-NH2). This experiment was performed as described in FIG. 4.
EtBr efflux represents a rapid and validated means by which to screen for SMR-mediated resistance activity [Poulsen and Deber, 2012, Antimicrob. Agents Chemother. 56, 3911-3916]. Here, E. coli cells are incubated with the peptide, EtBr and carbonyl cyanide 3-chlorophenylhydrazone (CCCP), a widely-used ionophore that acts as a disruptor of the proton-motive force. Upon its removal, EtBr efflux is monitored by fluorescence decay.
In this context, we have recently performed two pilot studies. […]

[3] = test system: E. coli (BL21 strain) overexpressing the SMR from P. aeruginosa (Psmr); experiment: Resensitization of bacteria to growth inhibition by benzalkonium chloride (BZK); assay type: cell-based; details: for inhibition of bacterial growth, single agent: agent alone (sublethal BZK or non-toxic dose of peptide); for inhibition of bacterial growth, single agent / inhibition of bacterial growth, peptide together with BZK: result in words; for inhibition of bacterial growth, peptide together with BZK: sub-lethal concentration of BZK plus peptide
Experimental: FIG. 7. Resensitization of bacteria to growth inhibition by the disinfectant benzalkonium chloride (BZK). […] However, when the BZK and TM4 peptide were both present at the same concentrations, the bacterial growth was reduced to <1% [i.e., inhibited to >99% (arrow)]. As a control, the same experiment was performed with a ‘scrambled’ version of TM4 peptide (termed SCR control), having identical amino acid composition but lacking the GG7 motif for binding to Psmr and disruption of its native dimer. […] TM4 peptide=Ac-Ala-(Sar)3-[…]-KKK—NH2 (see also Table 1). SCR control peptide=Ac-Ala-(Sar)3-LLVLAGIGIIGLV-KKK—NH2.
Antimicrobial peptides are exciting leads in the development of novel biocidal agents. Such peptides are currently used commercially in topical formulations, such as the lipopeptides polymyxin B and daptomycin [Kalorama Information Market Intelligence Report, “Health Care Infection Control Market” (126 reports; published on-line May, 2016)]. […] 2013. p. 128]. Despite this, we are not aware of any reports of a peptide that inhibits and/or prevents bacterial resistance to BZK and to other biocide mainstays of hospital and health care facilities. In this context, we examined the ability of the prototypic inhibitor peptides described herein to resensitize pathogenic bacteria to BZK and related disinfectants.

E. coli = experiment: EtBr resensitization assay; assay type: cell-based; details: sublethal toxicant plus peptide; FIG. 4B, result in words
Experimental: as §1
Resensitization to EtBr and other toxic SMR substrates are evaluated by incubating the bacteria with a sublethal concentration of the toxicant and twofold dilutions of peptide at 37° C. for 20 hr, after which bacterial growth (or lack thereof) is evaluated [Bellman-Sickert et al., 2015, J. Biol. Chem. 290, 1752-1759]. […]

[4] = sublethal BZK and non-toxic dose of peptide both present, FIG. 7

Compound: CC[C@H](C)[C@H](NC(=O)[C@H](CC(C)C)NC(=O)[C@H](C)NC(=O)[C@H](CC(C)C)NC(=O)CNC(=O)[C@@H](NC(=O)[C@@H](NC(=O)CNC(=O)[C@H](C)NC(=O)[C@@H](NC(=O)CN(C)C(=O)CN(C)C(=O)CN(C)C(=O)[C@H](C)NC(C)=O)C(C)C)C(C)C)C(C)C)C(=O)N[C@H](C(=O)N[C@@H](C)C(=O)NCC(=O)N[C@H](C(=O)N[C@H](C(=O)N[C@H](C(=O)N[C@@H](CC(C)C)C(=O)N[C@@H](CC(N)=O)C(=O)N[C@H](C(=O)N[C@@H](C)C(=O)N[C@@H](CO)C(=O)N[C@@H](CCCCN)C(=O)N[C@@H](CCCCN)C(=O)N[C@@H](CCCCN)C(N)=O)C(C)C)C(C)C)C(C)C)C(C)C)C(C)C [TM4(85-105)] (Ac-A[Sar][Sar][Sar]VAGVVGLALIVAGVVVLNVASKKK-NH2)
- hemolytic activity [1]: partially hemolytic
- minimal hemolytic concentration (MHC) [1]: ~10 µM
- inhibition of Hsmr-mediated EtBr efflux (Hsmr): specifically inhibit Hsmr-mediated efflux

Compound: Ac-A(Sar)3-^88IIGIALINAGVVV^100-KKK-NH2 (Ac-A[Sar][Sar][Sar]IIGIALINAGVVVKKK-NH2; SMILES CC[C@H](C)[C@H](NC(=O)CNC(=O)[C@@H](NC(=O)[C@@H](NC(=O)CN(C)C(=O)CN(C)C(=O)CN(C)C(=O)[C@H](C)NC(C)=O)[C@@H](C)CC)[C@@H](C)CC)C(=O)N[C@@H](C)C(=O)N[C@@H](CC(C)C)C(=O)N[C@H](C(=O)N[C@@H](CC(N)=O)C(=O)N[C@@H](C)C(=O)NCC(=O)N[C@H](C(=O)N[C@H](C(=O)N[C@H](C(=O)N[C@@H](CCCCN)C(=O)N[C@@H](CCCCN)C(=O)N[C@@H](CCCCN)C(N)=O)C(C)C)C(C)C)C(C)C)[C@@H](C)CC)
- inhibition of Psmr-mediated EtBr efflux [2]: inhibition of efflux

Compound: Ac-Ala-(Sar)3-LLVLAGIGIIGLV-KKK—NH2 (Ac-A[Sar][Sar][Sar]LLVLAGIGIIGLVKKK-NH2; SMILES CC[C@H](C)[C@H](NC(=O)CNC(=O)[C@H](C)NC(=O)[C@H](CC(C)C)NC(=O)[C@@H](NC(=O)[C@H](CC(C)C)NC(=O)[C@H](CC(C)C)NC(=O)CN(C)C(=O)CN(C)C(=O)CN(C)C(=O)[C@H](C)NC(C)=O)C(C)C)C(=O)NCC(=O)N[C@H](C(=O)N[C@H](C(=O)NCC(=O)N[C@@H](CC(C)C)C(=O)N[C@H](C(=O)N[C@@H](CCCCN)C(=O)N[C@@H](CCCCN)C(=O)N[C@@H](CCCCN)C(N)=O)C(C)C)[C@@H](C)CC)[C@@H](C)CC) [SCR peptide, scrambled version of TM4 peptide, identical composition but lacking the GG7 motif, reference compound]
- inhibition of bacterial growth, single agent [3]: neither the mixture of BZK+SCR peptide nor the SCR peptide alone inhibited bacterial growth
- inhibition of bacterial growth, peptide together with BZK [3]: neither the mixture of BZK+SCR peptide nor the SCR peptide alone inhibited bacterial growth
- inhibition of bacterial growth, peptide together with BZK ([3]; listed as ‘scrambled’ analog of the TM4 peptide): inactive

Compound: Ac-Ala-(Sar)3-LLGIGLIIAGVLV-KKK—NH2 (Ac-A[Sar][Sar][Sar]LLGIGLIIAGVLVKKK-NH2; SMILES CC[C@H](C)[C@H](NC(=O)CNC(=O)[C@H](CC(C)C)NC(=O)[C@H](CC(C)C)NC(=O)CN(C)C(=O)CN(C)C(=O)CN(C)C(=O)[C@H](C)NC(C)=O)C(=O)NCC(=O)N[C@@H](CC(C)C)C(=O)N[C@H](C(=O)N[C@H](C(=O)N[C@@H](C)C(=O)NCC(=O)N[C@H](C(=O)N[C@@H](CC(C)C)C(=O)N[C@H](C(=O)N[C@@H](CCCCN)C(=O)N[C@@H](CCCCN)C(=O)N[C@@H](CCCCN)C(N)=O)C(C)C)C(C)C)[C@@H](C)CC)[C@@H](C)CC) [TM4 peptide]
- inhibition of bacterial growth, single agent [3]: neither of which individually significantly inhibited bacterial growth
- inhibition of bacterial growth, peptide together with BZK [3]: completely abolishes E. coli growth
- bacterial growth [3, 4]: < 1%
- inhibition of bacterial growth [3, 4]: > 99%

Compound: CC[C@H](C)[C@H](NC(=O)[C@H](CC(C)C)NC(=O)[C@H](C)NC(=O)[C@H](CC(C)C)NC(=O)CNC(=O)[C@@H](NC(=O)[C@@H](NC(=O)CN(C)C(=O)CN(C)C(=O)CN(C)C(=O)[C@H](C)NC(C)=O)C(C)C)C(C)C)C(=O)N[C@H](C(=O)N[C@@H](C)C(=O)NCC(=O)N[C@H](C(=O)N[C@H](C(=O)N[C@H](C(=O)N[C@@H](CCCCN)C(=O)N[C@@H](CCCCN)C(=O)N[C@@H](CCCCN)C(N)=O)C(C)C)C(C)C)C(C)C)C(C)C [TM4(88-100)] (Ac-A[Sar][Sar][Sar]VVGLALIVAGVVVKKK-NH2)
- hemolytic activity [1]: total absence of hemolysis
- minimal hemolytic concentration (MHC) [1]: > 200 µM
- EtBr resensitization (ER) (E. coli): excellent resensitization
- inhibition of Hsmr-mediated EtBr efflux (Hsmr): significant efflux
- inhibition of Hsmr-mediated EtBr efflux (Hsmr; listed as Hsmr TM4(88-100)): maintain SMR inhibitory function at levels comparable to the full-length TM4 peptide

Compound: benzalkonium chloride [BZK, reference compound]
- inhibition of bacterial growth, single agent [3]: neither of which individually significantly inhibited bacterial growth
